Measured values as given in BindingDB's records for doi:10.1016/S0960-894X(00)80241-3 (1991).

test: Inhibition of [14C]arachidonic acid conversion to 5-HETE by broken cell 5-lipoxygenase in vitro (guinea pig PMN)

Compound | IC50 [nM]
COc1ccc2c(c1C(=O)NO)Nc1ccccc1O2 [2-Methoxy-10H-phenoxazine-1-carboxylic acid hydroxyamide] | 420
COC(=O)c1cccc2c1Nc1ccccc1O2 [10H-Phenoxazine-1-carboxylic acid methyl ester] | 770
O=C(O)c1cccc2c1Nc1ccccc1O2 [10H-Phenoxazine-1-carboxylic acid] | 610
CN(O)C(=O)c1ccc2c(c1)Nc1ccccc1O2 [10H-Phenoxazine-2-carboxylic acid hydroxy-methyl-amide] | 87
COC(=O)c1ccc2c(c1)Nc1ccccc1O2 [10H-Phenoxazine-2-carboxylic acid methyl ester] | 65
O=C(O)c1ccc2c(c1)Nc1ccccc1O2 [10H-Phenoxazine-2-carboxylic acid] | 4600
c1ccc2c(c1)Nc1ccccc1O2 [10H-Phenoxazine] | 20
CCOC(=O)/C=C/c1ccc2c(c1)Nc1ccccc1O2 [(E)-3-(10H-Phenoxazin-2-yl)-acrylic acid ethyl ester] | 35
O=C(O)/C=C/c1ccc2c(c1)Nc1ccccc1O2 [(E)-3-(10H-Phenoxazin-2-yl)-acrylic acid] | 1200
CN(O)C(=O)/C=C/c1ccc2c(c1)Nc1ccccc1O2 [(E)-N-Hydroxy-N-methyl-3-(10H-phenoxazin-2-yl)-acrylamide] | 85
